Experimental data: patent US11731943B2, “Therapeutic compounds, compositions and methods of use thereof” (priority 2016, dated 2023)
Where two headings read alike, the source gives them in different places.

Experiments:
[1] = molecular target: isolated recombinant JAK1 kinase domain (Homo sapiens (Human), UniProt P23458); test: JAK1 enzyme assay (Caliper LabChip, Ki); type: biochemical
Description: (§1) JAK Enzyme Assays were carried out as follows:
(§2) The activity of the isolated recombinant JAK1 and JAK2 kinase domain was measured by monitoring phosphorylation of a peptide derived from JAK3 (Val-Ala-Leu-Val-Asp-Gly-Tyr-Phe-Arg-Leu-Thr-Thr, fluorescently labeled on the N-terminus with 5-carboxyfluorescein) using the Caliper LabChip® technology (Caliper Life Sciences, Hopkinton, Mass.). […] Reactions were incubated at 22° C. in 384-well polypropylene microtiter plates for 30 minutes and then stopped by addition of 25 μL of an EDTA containing solution (100 mM HEPES buffer (pH 7.2), 0.015% Brij-35, 150 mM EDTA), resulting in a final EDTA concentration of 50 mM. After termination of the kinase reaction, the proportion of phosphorylated product was determined as a fraction of total peptide substrate using the Caliper LabChip® 3000 according to the manufacturer's specifications. Ki values were then determined using the Morrison tight binding model (Morrison, J. F., Biochim. Biophys. Acta. 185:269-296 (1969); William, J. W. and Morrison, J. F., Meth. Enzymol., 63:437-467 (1979)) modified for ATP-competitive inhibition [Ki=Ki,app/(1+[ATP]/Km,app)].

[2] = molecular target: isolated recombinant JAK2 kinase domain (Homo sapiens (Human), UniProt O60674); test: JAK2 enzyme assay (Caliper LabChip, Ki); type: biochemical
Description: as §1
as §2, with “([…]” for “(Val-Ala-Leu-Val-Asp-Gly-Tyr-Phe-Arg-Leu-Thr-Thr,”, “specifications.” for “specifications. Ki values were then determined using the Morrison tight binding model (Morrison, J. F., Biochim. Biophys. Acta. 185:269-296 (1969); William, J. W. and Morrison, J. F., Meth. Enzymol., 63:437-467 (1979)) modified for ATP-competitive inhibition [Ki=Ki,app/(1+[ATP]/Km,app)].”

Sequence of isolated recombinant JAK2 kinase domain (O60674 849-1124): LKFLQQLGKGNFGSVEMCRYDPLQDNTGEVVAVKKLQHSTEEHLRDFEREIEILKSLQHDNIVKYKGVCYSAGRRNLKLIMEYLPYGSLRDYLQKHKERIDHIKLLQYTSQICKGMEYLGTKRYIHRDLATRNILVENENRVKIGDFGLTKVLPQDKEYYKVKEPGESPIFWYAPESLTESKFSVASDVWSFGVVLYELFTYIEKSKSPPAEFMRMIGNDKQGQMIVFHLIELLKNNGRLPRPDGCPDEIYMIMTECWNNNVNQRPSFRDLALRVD
Sequence of isolated recombinant JAK1 kinase domain (P23458 875-1153): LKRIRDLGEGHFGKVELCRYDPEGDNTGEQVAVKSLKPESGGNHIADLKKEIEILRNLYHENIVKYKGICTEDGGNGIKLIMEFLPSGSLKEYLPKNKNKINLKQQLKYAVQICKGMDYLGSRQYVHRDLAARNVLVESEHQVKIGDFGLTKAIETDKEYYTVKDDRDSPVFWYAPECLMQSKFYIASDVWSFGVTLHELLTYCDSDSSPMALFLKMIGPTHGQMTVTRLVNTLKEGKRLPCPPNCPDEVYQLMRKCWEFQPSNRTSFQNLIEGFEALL

SMILES	Ki ([1]; read-out: JAK1 Ki) [nM]	Ki [2] [nM]	Ki [1] [nM]
N#CCC1(n2cc(C(N)=O)c(NC(=O)C3CC3)n2)CCN(Cc2cccc(SC(F)(F)F)c2)CC1 [Example 67]	100	> 319	
N#CCC1(n2cc(C(N)=O)c(NC(=O)C3CC3)n2)CCN(Cc2ccc(-c3ccn(C(F)(F)F)n3)cc2)CC1 [Example 83]	16.1	313	
CN[C@H]1CC[C@](CC#N)(n2cc(C(N)=O)c(NC(=O)C3CC3)n2)CC1 [Example 99]		> 319	92.2
N#CC[C@]1(n2cc(C(N)=O)c(NC(=O)C3CC3)n2)CC[C@@H](NCc2ccccc2)CC1 [Example 110]		254	5.3
N#CCC1(n2cc(C(N)=O)c(NC(=O)[C@H]3C[C@H]3F)n2)CCN(CC(F)(F)F)CC1 [Example 29]	10.1	11.9	
COC(=O)Nc1nn(C2(CC#N)CCN(CC(F)(F)F)CC2)cc1C(N)=O [Example 4, Methyl (4-carbamoyl-1-(4-(cyanomethyl)-1-(2,2,2-trifluoroethyl)piperidin-4-yl)-1H-pyrazol-3-yl)carbamate]	8.2	34.5	
N#CCC1(n2cc(C(N)=O)c(NC(=O)C3CC3)n2)CCN(Cc2ccc3cc[nH]c3c2)CC1 [Example 72]	8.3	31.3	
N#CC[C@]1(n2cc(C(N)=O)c(NC(=O)C3CC3)n2)CC[C@H](N2CC(F)(F)C2)CC1 [Example 179, 1-[1-(cyanomethyl)-4-(3,3-difluoroazetidin-1-yl)cyclohexyl]-3-(cyclopropanecarbonylamino) pyrazole-4-carboxamide]		> 319	> 562
CC(C)(C)OC(=O)N[C@H]1CC[C@@](CC#N)(n2cc(C(N)=O)c(NC(=O)C3CC3)n2)CC1 [Example 36]		> 319	> 562
CS(=O)(=O)c1ccccc1CN1CCC(CC#N)(n2cc(C(N)=O)c(NC(=O)C3CC3)n2)CC1 [Example 69]	15.2	124	
N#CC[C@]1(n2cc(C(N)=O)c(NC(=O)C3CC3)n2)CC[C@H](NCc2cccc(F)c2)CC1 [Example 113]		187	14.4
COc1ccc(CN2CCC(CC#N)(n3cc(C(N)=O)c(NC(=O)C4CC4)n3)CC2)cc1 [Example 43]	25.8	170	
CN[C@H]1CC[C@@](CC#N)(n2cc(C(N)=O)c(NC(=O)C3CC3)n2)CC1 [Example 100]		> 319	> 562
N#CCC1(n2cc(C(N)=O)c(NC(=O)[C@@H]3C[C@H]3F)n2)CCN(CC(F)(F)F)CC1 [Example 30]	8.6	53.2	
CN(C)C(=O)c1ccccc1-c1ccc(CN2CCC(CC#N)(n3cc(C(N)=O)c(NC(=O)C4CC4)n3)CC2)cc1 [Example 144, 1-[4-(cyanomethyl)-1-[[4-[2-(dimethylcarbamoyl)phenyl]phenyl]methyl]-4-piperidyl]-3-(cyclopropanecarbonylamino) pyrazole-4-carboxamide]	8.8	63.5	
N#CCC1(n2cc(C(N)=O)c(NC(=O)C3CC3)n2)CCN(Cc2ccccc2-c2ccccc2)CC1 [Example 38]	8.1	107	
N#CC[C@]1(n2cc(C(N)=O)c(NC(=O)C3CC3)n2)CC[C@H](NC2CC(F)(F)C2)CC1 [Example 172, 1-[1-(cyanomethyl)-4-[(3,3-difluorocyclobutyl)amino]cyclohexyl]-3-(cyclopropanecarbonylamino) pyrazole-4-carboxamide]		> 319	> 562
N#CCC1(n2cc(C(N)=O)c(NC(=O)C3CC3)n2)CCN(Cc2ccc(C(F)(F)F)cc2)CC1 [Example 63]	14.4	134	
N#CCC1(n2cc(C(N)=O)c(NC(=O)C3CC3)n2)CCN(Cc2cccc(OC(F)F)c2)CC1 [Example 92]	10.9	88.1	
CC(C)OC1(C(F)(F)F)CN([C@H]2CC[C@](CC#N)(n3cc(C(N)=O)c(NC(=O)C4CC4)n3)CC2)C1 [Example 136]	463	> 319	

SMILES	Ki ([1]; read-out: JAK1 Ki) [nM]	Ki [2] [nM]	Ki [1] [nM]
N#CC[C@]1(n2cc(C(N)=O)c(NC(=O)C3CC3)n2)CC[C@@H](NCc2ccc(C#N)cc2)CC1 [Example 122]		> 319	562
CNC(=O)Nc1cn(C2(CC#N)CCN(CC(F)(F)F)CC2)nc1C(N)=O [Example 3, 1-(4-(Cyanomethyl)-1-(2,2,2-trifluoroethyl)piperidin-4-yl)-4-(3-methylureido)-1H-pyrazole-3-carboxamide]	6.4	15.7	
N#CCC1(n2cc(C(N)=O)c(NC(=O)C3CC3)n2)CCN(Cc2cccc(CN)c2)CC1 [Example 97]	41	163	
CC(=O)Nc1nn(C2(CC#N)CCN(CC(F)(F)F)CC2)cc1C(N)=O [Example 24]	35.6	76.7	
N#CCC1(n2cc(C(N)=O)c(NC(=O)C3CC3)n2)CCN(Cc2cccc(NS(=O)(=O)C(F)(F)F)c2)CC1 [Example 93]	72.1	> 319	
N#CCC1(n2cc(C(N)=O)c(NC(=O)C3CC3)n2)CCN(Cc2ccc3c(c2)CSC3)CC1 [Example 91]	8.3	173	
N#CC[C@]1(n2cc(C(N)=O)c(NC(=O)C3CC3)n2)CC[C@@H](N2CC(C(F)(F)F)C2)CC1 (single isomer, unassigned) [Example 7]	> 562	> 319	
N#CCC1(n2cc(C(N)=O)c(NC(=O)C3CC3)n2)CCN(Cc2cccc(C#N)c2)CC1 [Example 65]	13.7	123	
CC1(C)CN([C@H]2CC[C@@](CC#N)(n3cc(C(N)=O)c(NC(=O)C4CC4)n3)CC2)C1 [Example 106]		333	23.3
N#CCC1(n2cc(C(N)=O)c(NC(=O)C3CC3)n2)CCC2(CC1)Oc1ccccc1O2 (racemic) [Example 34]		276	24.8
N#CCC1(n2cc(C(N)=O)c(NC(=O)C3CC3)n2)CCN(Cc2cccc(Cl)c2)CC1 [Example 59]	4.7	35.9	
N#CCC1(n2cc(C(N)=O)c(NC(=O)C3CC3)n2)CCN(Cc2ccc(-n3cncn3)cc2)CC1 [Example 86]	99.7	> 319	
N#CCC1(n2cc(C(N)=O)c(NC(=O)C3CC3)n2)CCCCC1 [Example 33]	15.6	76.5	
N#CCC1(n2cc(C(N)=O)c(NC(=O)C3CC3)n2)CCN(Cc2cccc(I)c2)CC1 [Example 54]	10.7	102	
N#CCC1(n2cc(C(N)=O)c(NC(=O)C3CC3)n2)CCN(Cc2ccc(OC(F)(F)F)cc2)CC1 [Example 49]	23.3	190	
N#CCC1(n2cc(C(N)=O)c(NC(=O)C3CC3(F)F)n2)CCN(CC(F)(F)F)CC1 (stereo not drawn) [Example 26]	11.5	203	
N#CCC1(n2cc(C(N)=O)c(NC(=O)C3CC3)n2)CCN(CC(O)c2ccccc2)CC1 (stereo not drawn) [Example 20, 1-(4-(cyanomethyl)-1-(2-hydroxy-2-phenylethyl)piperidin-4-yl)-3-(cyclopropanecarboxamido)-1H-pyrazole-4-carboxamide]		> 319	447
N#CC[C@]1(n2cc(C(N)=O)c(NC(=O)C3CC3)n2)CC[C@H](NCc2ccc(C#N)cc2)CC1 [Example 121]		282	14.6
N#CCC1(n2cc(C(N)=O)c(NC(=O)C3CC3)n2)CCN(Cc2cccc(OC(F)(F)F)c2)CC1 [Example 48]	27.7	189	
